Laboratory results: ChEMBL document CHEMBL5252598, “Armeniaspirol analogues disrupt the electrical potential (ΔΨ) of the proton motive force” (Bioorg Med Chem Lett, 2023)
≈ marks a conversion by molar mass, not a printed value. Calls of active or inactive are those of the source. The rule behind the calls is not given here.

What was measured:
[1] = system: Staphylococcus aureus; test: Antibacterial activity against Staphylococcus aureus USA300 assessed as bacterial growth inhibition by checkerboard assay; assay type: functional
[2] = system: Cell membrane; test: Induction of membrane depolarization in methicillin-resistant Staphylococcus aureus USA300 assessed as measuring minimum effective concentration by DiSC3(5) dye-based fluorescence assay
[3] = system: Cell membrane; test: Induction of membrane depolarization in methicillin-resistant Staphylococcus aureus USA300 by […] dye-based fluorescence assay; assay type: subcellular
[4] = system: Escherichia coli; test: Antagonistic antibacterial activity against Escherichia coli harbouring TolC-deficient mutant assessed as fractional inhibitory concentration in presence of kanamycin by checker board assay; assay type: functional
[5] = system: Cell membrane; test: Induction of membrane depolarization in methicillin-resistant Staphylococcus aureus USA300 assessed as disruption of transmembrane electrical potential by DiSC3(5) dye-based fluorescence assay
[6] = system: Escherichia coli; test: Antibacterial activity against Escherichia coli harbouring TolC-deficient mutant assessed as fractional inhibitory concentration in presence of tetracycline by checker board assay; assay type: functional
[7] = system: Bacteria; test: Inhibition of ATP-dependent ClpXP proteases (unknown origin)
[8] = system: Bacteria; test: Inhibition of ATP-dependent ClpYQ proteases (unknown origin)
[9] = system: Cell membrane; test: Induction of membrane depolarization in methicillin-resistant Staphylococcus aureus USA300 assessed as disruption of transmembrane proton gradient by DiSC3(5) dye-based fluorescence assay

SMILES	MIC [1]	MEC [2]	EC50 [3]	other results
CCCCCCc1c(O)c(Cl)cc2c1OC1(C2=O)C(Cl)=C(Cl)C(=O)N1Cc1ccccc1 (stereo not drawn)	1 µg/mL	0.5 µg/mL	0.39 µg/mL (≈ 0.788 µM)	
CCCCCCN1C(=O)C(Cl)=C(Cl)C12Oc1c(cc(Cl)c(O)c1C)C2=O (stereo not drawn)	4 µg/mL	0.5 µg/mL	0.17 µg/mL (≈ 0.406 µM)	
CCCCCCc1c(O)c(Cl)cc2c1OC1(C2=O)C(Cl)=C(Cl)C(=O)N1CCCCCC (stereo not drawn)	1 µg/mL	0.0312 µg/mL	0.07 µg/mL (≈ 0.143 µM)	FIC [4]: >4
CCCCCCCCCCCCN1C(=O)C(Cl)=C(Cl)C12Oc1c(cc(Cl)c(O)c1CCCCCC)C2=O (stereo not drawn)	16 µg/mL	> 1 µg/mL	> 8 µg/mL	
CCCCCCc1c(O)c(Cl)cc2c1OC1(C2=O)C(Cl)=C(Cl)C(=O)N1CCc1ccccc1 (stereo not drawn)	0.5 µg/mL	0.125 µg/mL	0.12 µg/mL (≈ 0.236 µM)	
C=CCN1C(=O)C(Cl)=C(Cl)C12Oc1c(cc(Cl)c(O)c1CCCCCC)C2=O (stereo not drawn)	4 µg/mL	0.25 µg/mL	0.23 µg/mL (≈ 0.517 µM)	
CC(C)[C@@H]1NC(=O)[C@H](C)OC(=O)[C@@H](C(C)C)NC(=O)[C@@H](C(C)C)OC(=O)[C@H](C(C)C)NC(=O)[C@H](C)OC(=O)[C@@H](C(C)C)NC(=O)[C@@H](C(C)C)OC(=O)[C@H](C(C)C)NC(=O)[C@H](C)OC(=O)[C@@H](C(C)C)NC(=O)[C@@H](C(C)C)OC1=O				Activity [5]: Active
CCCCCCc1c(O)c(Cl)cc2c1OC1(C2=O)C(Cl)=C(Cl)C(=O)N1C (stereo not drawn)	4 µg/mL	0.5 µg/mL	0.42 µg/mL (≈ 1 µM)	Activity [5]: Active; FIC [4]: >4; FIC [6]: 0.656
CCCCCCc1c(OC)c(Cl)cc2c1OC1(C2=O)C(Cl)=C(Cl)C(=O)N1CCCCCC (stereo not drawn)	4 µg/mL	0.125 µg/mL	0.54 µg/mL (≈ 1.07 µM)	inhibition [7]: inactive; inhibition [8]: inactive
Cc1c(O)c(Cl)cc2c1OC1(C2=O)C(Cl)=C(Cl)C(=O)N1Cc1ccc(C(F)(F)F)cc1 (stereo not drawn)	16 µg/mL	2 µg/mL	2.45 µg/mL (≈ 4.97 µM)	
CCCCCCc1c(O)c(Cl)cc2c1OC1(C2=O)C(Cl)=C(Cl)C(=O)N1Cc1ccc(C)cc1 (stereo not drawn)	0.5 µg/mL	0.125 µg/mL	0.07 µg/mL (≈ 0.138 µM)	FIC [4]: >4
CCCCCCCCCCCCN1C(=O)C(Cl)=C(Cl)C12Oc1c(cc(Cl)c(O)c1C)C2=O (stereo not drawn)	1 µg/mL	0.25 µg/mL	0.28 µg/mL (≈ 0.557 µM)	
CCCCCCc1c(OC)c(Cl)cc2c1OC1(C2)NC(=O)C(Cl)=C1Cl (stereo not drawn)				Activity [5]: Active
C=CCN1C(=O)C(Cl)=C(Cl)C12Oc1c(cc(Cl)c(O)c1C)C2=O (stereo not drawn)	> 32 µg/mL	8 µg/mL	> 8 µg/mL	
Cc1c(O)c(Cl)cc2c1OC1(C2=O)C(Cl)=C(Cl)C(=O)N1Cc1ccccc1 (stereo not drawn)	32 µg/mL	4 µg/mL	3.2 µg/mL (≈ 7.54 µM)	
CCCCCCc1c(O)c(Cl)cc2c1OC1(C2=O)C(Cl)=C(Cl)C(=O)N1Cc1ccc(C(F)(F)F)cc1 (stereo not drawn)	2 µg/mL	0.125 µg/mL	0.3 µg/mL (≈ 0.533 µM)	
CCCCCCc1c(OC)c(Cl)cc2c1OC1(C2=O)C(Cl)=C(Cl)C(=O)N1C (stereo not drawn)	> 32 µg/mL	4 µg/mL	2.04 µg/mL (≈ 4.71 µM)	
CO[C@@H]1C[C@@H](C[C@H]2CC[C@H](C)[C@H]([C@@H](C)C(=O)O)O2)O[C@]2(O[C@](C)([C@H]3CC[C@@](C)([C@@H]4O[C@@H]([C@H]5O[C@@](O)(CO)[C@H](C)C[C@@H]5C)C[C@@H]4C)O3)C[C@H]2C)[C@@H]1C				Activity [9]: Active
Cc1c(O)c(Cl)cc2c1OC1(C2=O)C(Cl)=C(Cl)C(=O)N1C (stereo not drawn)	> 32 µg/mL	8 µg/mL	> 8 µg/mL	
